Measurements published in ChEMBL document CHEMBL2028040, “Malaria Box”.

Assays:
Trypanosoma cruzi = assay: MMV: Inhibition of Trypanosoma cruzi (Tulahuen C4 LacZ) (Chagas in vitro).; format: functional, organism-based
Plasmodium falciparum [1] = assay: MMV: Inhibition of Plasmodium falciparum 3D7 at 5uM compound concentration.; format: functional
Plasmodium falciparum [2] = assay: MMV: Inhibition of Plasmodium falciparum K1 (EC50).; format: functional, organism-based
Leishmania infantum = assay: MMV: Inhibition of Leishmania infantum (MHOM/MA/BE/67) in vitro.; format: functional, organism-based
[3] = system: Trypanosoma brucei rhodesiense; assay: MMV: Inhibition of Trypanosoma brucei rhodesiense (STIB 900) (HAT in vitro).; format: functional, organism-based
[4] = system: Trypanosoma brucei brucei; assay: MMV: Inhibition of Trypanosoma brucei brucei (Squib 427) (HAT in vitro).; format: functional, organism-based
[5] = MMV: Cytotoxicity against human fibroblasts (MRC-5) cells.; details: MRC-5 cells (human fibroblasts)
Plasmodium falciparum [6] = assay: MMV: Inhibition of Plasmodium falciparum 3D7 (EC50).; format: functional, organism-based

Row | SMILES | IC50 (Trypanosoma cruzi) [µM] | inhibition at 5 µM (Plasmodium falciparum [1]) [%] | EC50 (Plasmodium falciparum [2]) [nM] | IC50 (Leishmania infantum) [µM] | IC50 [3] [µM] | IC50 [4] [µM] | IC50 [5] [µM] | EC50 (Plasmodium falciparum [6]) [nM]
1 | CCOc1c(Cl)cc(CNC(C)C(O)c2ccccc2)cc1OC (centres undefined) | > 32 | 98 | 706 | 16.6 | 4.09 | 9.51 | > 32 | –
2 | CC(C)(C)CC(C)(C)NCC(O)COc1ccc2c(c1)CCC2 (centres undefined) | 15.7 | 78 | 1080 | 4.76 | 1.02 | 3.49 | 26.1 | –
3 | C=CC12CCN(CC1)C(C(O)c1ccnc3ccc(OC)cc13)C2 (centres undefined) | > 32 | – | 28.1 | > 32 | 16 | > 32 | > 32 | –
4 | CC(O)(c1ccc(Cl)cc1)C(CN1CCCCC1)c1ccccc1 (centres undefined) | > 32 | 94 | 576 | > 32 | 14.8 | 16.1 | > 32 | –
5 | COc1ccc(CN2CCCC(C(=O)c3ccc(C(F)(F)F)cc3)C2)c(O)c1 (centres undefined) | > 32 | 97 | 728 | > 32 | > 32 | > 32 | > 32 | –
6 | CCOC(=O)C1(Cc2ccccc2)CCN(Cc2cccc(OC)c2O)CC1 | 17.1 | 95 | 1000 | > 32 | 15.3 | 16.7 | > 32 | –
7 | CCCCCn1c(=N)n(CC(O)COc2cccc(C)c2)c2ccccc21 (centres undefined) | 4.21 | 96 | 1250 | 3.41 | 0.986 | 0.923 | 15.5 | –
8 | Oc1ccc(Br)cc1CN1CCN(Cc2ccc(Cl)cc2)CC1 | 8.28 | 97 | 899 | > 32 | 14.9 | > 32 | > 32 | –
9 | CCCc1c(C)nc2ccc(Br)cc2c1O | > 32 | 64 | – | > 32 | > 32 | > 32 | > 32 | 1190
10 | CCCN(CCC)CCCNC(=O)c1cc2c(-c3ccc(OC)c(OC)c3)nn(C)c2s1 | 27.5 | 98 | – | 16 | 14.6 | > 32 | > 32 | 1430
11 | O=C(NC1CCCCC1)C(c1cccs1)N(CCc1ccccc1)C(=O)c1ccco1 (centres undefined) | > 32 | 90 | – | > 32 | 19.2 | > 32 | > 32 | 1070
12 | CCn1c(SCC(=O)Nc2cc(C(F)(F)F)ccc2Cl)nc2ccccc2c1=O | > 32 | 91 | – | > 32 | > 32 | > 32 | > 32 | 1000
13 | CCN(CC)CCn1c(=N)n(CC(O)c2ccc(Cl)c(Cl)c2)c2ccccc21 (centres undefined) | 3.82 | 97 | 575 | 1 | 1.02 | 0.908 | 16.1 | –
14 | COc1ccc(C2NCCc3c2[nH]c2ccccc32)cc1CN1CCN(c2ccc(F)cc2)CC1 (centres undefined) | 2.75 | 97 | – | 1.19 | 0.246 | 2.78 | 3.94 | 934
15 | CCN1CCN(Cc2ccc(NC(=O)c3cc4ccc5cccnc5c4[nH]3)cc2)CC1 | 8 | 70 | – | 6.35 | 0.928 | 3.78 | 8.47 | 361
16 | CCOc1cc(Cl)c(C(C)NC(=O)c2ccccc2)cc1OCC (centres undefined) | > 32 | 96 | – | > 32 | > 32 | > 32 | > 32 | 1370
17 | O=C(Nc1ccc(-c2nc3ccccc3[nH]2)cc1)c1ccc(Cl)c(Cl)c1 | > 32 | 97 | – | > 32 | > 32 | > 32 | > 32 | 838
18 | CCc1ccc(CNCC(O)c2ccccc2)cc1 (centres undefined) | > 32 | 97 | 650 | 25.4 | 4.03 | 13.3 | > 32 | –
19 | CC1=C(CC(=O)c2cccc([N+](=O)[O-])c2)C(=O)c2ccccc2C1=O | 13.4 | 95 | – | > 32 | 16 | 14.5 | > 32 | 381
20 | O=C(CCc1ccco1)NC1CCN(CC2(c3ccc(Cl)cc3)CCC2)CC1 | 16.6 | 96 | – | 19 | 1.01 | 2.89 | > 32 | 1140

Row | SMILES | IC50 (Trypanosoma cruzi) [µM] | inhibition at 5 µM (Plasmodium falciparum [1]) [%] | EC50 (Plasmodium falciparum [2]) [nM] | IC50 (Leishmania infantum) [µM] | IC50 [3] [µM] | IC50 [4] [µM] | IC50 [5] [µM] | EC50 (Plasmodium falciparum [6]) [nM]
21 | CCOc1ccc(Nc2c3ccccc3nc3ccccc23)cc1 | 1.25 | 97 | – | 1.59 | 0.976 | 3.45 | 8.44 | 1060
22 | COc1ccc2nc(C)cc(Nc3cccc(O)c3)c2c1 | 15 | 98 | – | 16 | 5.08 | 4.41 | > 32 | 969
23 | Cc1ccc(Cl)cc1N1CCN(CCCNC(=O)C2CCN(c3nc4ccccc4[nH]3)CC2)CC1 | 3.74 | 97 | – | 4 | 1.01 | 1.31 | 14.5 | 1330
24 | COc1cccc(-c2nn(C)c3sc(C(=O)NCCN4CCN(c5ccccc5F)CC4)cc23)c1 | > 32 | 91 | – | > 32 | 5.31 | 16 | > 32 | 1300
25 | O=[N+]([O-])c1ccc(C=NNc2nc3ccccc3[nH]2)cc1 | > 32 | 99 | – | 16.2 | > 32 | > 32 | > 32 | 142
26 | COCCN(C(=O)Cc1cccs1)C(C(=O)NCc1ccc(OC)cc1)c1ccc(C(C)C)cc1 (centres undefined) | 16.3 | 92 | – | > 32 | 16.2 | 16.2 | 27 | 1190
27 | O=C1c2ccccc2C2=Nc3ccccc3SC(c3cccc(F)c3)C12 (centres undefined) | > 32 | 94 | – | > 32 | 7.17 | > 32 | > 32 | 414
28 | CCC(C)NCC(O)(c1ccc(Cl)cc1)c1ccc(Cl)cc1 (centres undefined) | 15 | 98 | 398 | 16 | 4.03 | 4.1 | > 32 | –
29 | O=C(NCc1ccco1)C1CCN(S(=O)(=O)c2ccc(Br)cc2)CC1 | > 32 | 93 | – | > 32 | > 32 | > 32 | > 32 | 939
30 | O=C(Nc1cccc(-c2nc3ccccc3[nH]2)c1)c1cccc(NC(=O)c2ccco2)c1 | > 32 | 95 | – | > 32 | > 32 | > 32 | > 32 | 745
31 | C=CCc1c(C)nc2ccccc2c1O | > 32 | 85 | – | > 32 | > 32 | > 32 | > 32 | 1290
32 | COc1ccc2c(c1OC)C(=O)N1c3ccccc3N=C(c3ccc(C)cc3)CC21 (centres undefined) | > 32 | 93 | – | > 32 | 3.83 | 4.28 | > 32 | 1240
33 | c1ccc(-c2ccc(-c3nc4ccccc4[nH]3)cc2)cc1 | > 32 | 52 | – | > 32 | > 32 | > 32 | > 32 | 1070
34 | COc1ccc(C(=O)NC(c2ccccc2Cl)c2cc(Cl)c3cccnc3c2O)cc1 (centres undefined) | > 32 | 96 | 703 | > 32 | > 32 | > 32 | > 32 | –
35 | CCOc1ccc(C2N(C)c3ccccc3N2C)cc1 | 3.1 | 72 | – | 25.4 | > 32 | > 32 | 15.5 | 941
36 | Cc1ccc(S(=O)(=O)c2c(COC(=O)c3cccc(C)c3)c(-c3ccccc3)nn2C)cc1 | 23.6 | 95 | 776 | 17.3 | 16.5 | 16.3 | > 32 | –
37 | Cc1ccc(Cn2c(N3CCC(C(=O)NCc4cccs4)CC3)nc3ccccc32)cc1 | > 32 | 73 | – | 25.4 | > 32 | > 32 | > 32 | 947
38 | O=C(Nc1ccc(N2CCN(Cc3ccccc3)CC2)cc1)c1cccs1 | > 32 | 59 | – | > 32 | 9.69 | 14.6 | > 32 | 1080
39 | COc1ccc(CNC(=O)c2cc3c(=O)n4ccccc4nc3n(CCc3ccccc3)c2=N)cc1 | 4.91 | 95 | – | 13.6 | 3.15 | 11.9 | 14.7 | 1060
40 | COc1ccc2nc(N)nc(C)c2c1 | > 32 | 63 | 300 | > 32 | 16.3 | 18.4 | > 32 | –
